{"source": "patent EP1600153A1", "about": "“Slow-release pharmaceutical composition allowing to monitor drug release” (Deutsches Krebsforschungszentrum Stiftung des öffentlichen …, priority 2004, dated 2005)", "key": {"[1]": {"assay": "Subcutaneous injection of FLAMP solution (control): 19F MRS in vivo at the site of injection", "parameters": "species or system rat", "method": "Subcutaneous injection of 34 mcmol FLAMP, along with 0.5 mcmol Gd-DTPA, as a 1 ml-solution in an adult male rat, 19F MRS in vivo at the site of injection. Relative FLAMP signal (peak area of FLAMP / peak area of external NaF standard) versus time after injection.\n(§1) A solution of the drug and the contrast agent was injected subcutaneously, followed by local MRS and MRI monitoring as in Example 2, in order to test whether either agent might be locally detectable even after release from the depot preparation. The injection volume (1 ml) and the amount of drug (FLAMP, 34 mcmoles) were the same as in Example 2 while the amount of contrast agent was doubled (Gd-DTPA, 0.5 mcmol)."}, "[2]": {"settings": "course of plasma level corresponds to that after intravenous application; cited from earlier work"}, "[3]": {"assay": "Subcutaneous liposome depot preparation in rats: amount of FLAMP at the site of injection by 19F-MRS in vivo", "parameters": "species or system Wistar rats", "method": "2 ml aqua bidest., 1,7 µl Magnevist™ and 200 mg Phospholipon™ 90H were added to a bottle for injection of Fludara™. The mixture was mixed by hand for 20 min. at room temperature. Then, the mixture was subjected to 6 cycles of vortexing for 2 min. and placing in a water bath at 64°C for 3 min.. Subsequently, the mixture was subjected to 6 cycles of holding in liquid nitrogen for 3 min. and placing in a water bath at 64°C for 6 min. Finally, the mixture was washed for four times with each of 10 ml phosphate buffer. After each washing step, the mixture was centrifuged for 15 min. at 10,000 x g. A colorless preparation having a consistency of a paste was obtained which was transferred to a syringe.\nAdult male Wistar rats were bred in twos in isolators and received Altromin™ and water ad libitum. At day 1, in the morning rats were subcutaneously injected once with 1 ml of the pharmaceutical composition described in Example 1 into the right flank (\"Luer\"-canulla No.12 with screw thread). Injections and NMR-measurements were carried with rats which had been previously subjected to inhalation anesthesia (77% N2, 22% O2 and 1 - 1,2% Isofluran™) .\nAt day 1, in the morning (after the formulation had been injected) and in the afternoon, respectively, as well as at days 4, 13, 22, 29, 36 and 43 the following NMR-measurements were carried out: The amount of Fludarabin monophosphate (FLAMP) at the site of injection was determined by ^19F-MRS and the volume and the contrast intensity of the drug depot was measured by MRT.\nA 1,5-T whole body tomograph(Magnetom Vision Plus, Siemens AG, Erlangen, Germany) was used for the NMR-measurements. For both, the ^19F-MRS and the ^1H-imaging a volume resonator which had been constructed by the DKFZ (resonance frequency: 63,6 MHz (^1H) , 59,9 MHz (^19F) with an inner diameter of 8.4 cm was used which served as transmitting- and receiving coil.\nAfter the rats had been positioned (subcutaneous liposome depot in the middle of the resonator) the volume resonator was manually tuned to the ^1H resonance frequency. After \"Shim\" (optimization of field homogeneity) by use of the ^1H-tissue water resonance line and subsequent tuning of the coil to the ^19F resonance frequency the ^19F spectra were recorded. The reading sequence comprised a simple non-layer-specific pulsed excitation with subsequent recording of 1024 readings in 51.2 ms corresponding to the fast T2-decay of the FID. The recording period of TA = 33:21 min. resulted from a repetition time TR = 100 ms and a number of NEX = 20000 excitations.\nIn order to get a reference for the chemical shift and the signal intensity of FLAMP a 0.5 ml reference solution containing 400 mM NaF was applied to the middle of the underside of the volume resonator with the resonance of this solution being at about -40 ppm (with reference to TFA). The follow-up editing of the spectra was carried out by use of the software LUISE which is implemented to the tomograph. […] The relation of the integrals of the resonances of FLAMP to NaF served as a reference value for the individual readings. ^1H-imaging with high resolution was carried with a T1-weighted 3D-gradient-echo-method (3D-FLASH) with lipid saturation (parameters used for measurements: TR = 45 ms; TE = 11 ms; α = 30; FOV = 50 mm; matrix-size = 128 x 128; period of acquisition for the individual readings: 15,36 ms). Multiple transverse layer images of the liposome depots were recorded with layers having an actual thickness of 2, 1- and 0,4 mm, respectively. […]"}, "[4]": {"assay": "Subcutaneous injection of Gd-DTPA solution (control): 1H MR imaging at the site of injection", "format": "in vivo, rat", "method": "Subcutaneous injection of 0.5 mcmol Gd-DTPA (along with 34 mcmol FLAMP), as a 1 ml-solution in an adult male rat (left flank). Transversal 1H MR images (slice thickness 2 mm) from the region of the injection, taken 85 min after injection. Images numbered in caudal-cranial direction.\nas §1"}}, "data": [{"compound": "Nc1nc(F)nc2c1ncn2[C@@H]1O[C@H](COP(=O)(O)O)[C@@H](O)[C@@H]1O", "note": "[FLAMP, Fludarabin-5'-monophosphate]", "values": [{"measurement": "19F MRS signal from the drug at the site of injection", "setting": "[1]; 8 min after s.c. injection of solution, 34 mcmoles FLAMP in 1 ml", "value": "about the same as on day 1 after injecting the depot preparation"}, {"measurement": "19F MRS signal from the drug at the site of injection", "setting": "[1]; after 24 hours, s.c. solution, 34 mcmoles FLAMP", "value": "no longer detectable"}, {"measurement": "disappearance of MRS signals from the drug itself or indistinguishable metabolites", "setting": "[1]; drug injected as a solution", "value": "disappear within a few hours"}, {"measurement": "drop of 19F MRS signal from the drug", "setting": "[1]; within 5 hours after s.c. injection of solution, 34 mcmoles FLAMP", "value": "more than 90"}, {"measurement": "absorption after subcutaneous application", "setting": "[2]", "value": "immediately absorbed"}, {"measurement": "drug amounts injected still present at the site of injection", "setting": "[3]; day 13 post injection, s.c. 1 ml liposome depot (Phospholipon, Fludara, Magnevist), 19F-NMR-spectroscopy", "value": 70, "unit": "%"}, {"measurement": "drug amounts injected still present at the site of injection", "setting": "[3]; end of the experiment (day 43, six weeks), s.c. liposome depot", "value": 10, "unit": "%"}, {"measurement": "amounts of drug available for release, of the amounts initially injected", "setting": "[3]; end of the period, about six weeks after subcutaneous injection of depot", "value": 12, "unit": "%"}, {"measurement": "time at which amount of FLAMP at the site of injection started to decrease continuously", "setting": "[3]; s.c. liposome depot, 19F-MRS", "value": "About one week after injection"}, {"measurement": "amounts of drug available for release, of the amounts initially injected", "setting": "[3]; start of the period, about one week after subcutaneous injection of depot", "value": 70, "unit": "%"}]}, {"compound": "gadolinium-DPTA [Gd-DTPA]", "values": [{"measurement": "contrast enhancement at the site of injection (1H-images, 24 adjacent 2 mm layers)", "setting": "[4]; 85 min after s.c. injection of solution, 0.5 mcmol Gd-DTPA", "value": "only a faint diffuse contrast enhancement was detectable in three adjacent layers"}, {"measurement": "area of remaining contrast enhancement", "setting": "[4]; 85 min after s.c. injection of solution, 0.5 mcmol Gd-DTPA, three adjacent layers", "value": "about 212 mm"}, {"measurement": "contrast enhancement left at the site of administration", "setting": "[4]; one and a half hours after subcutaneous injection of Gd-DTPA solution", "value": "Almost no contrast enhancement was left"}]}]}
